Laboratory results from patent US8889704B2 (Array BioPharma Inc., priority 2011, dated 2014).
Structures can show the parent of a compound that is named as a salt.

How the values were obtained:
Type in all cases: biochemical
recombinant rat PIM-3 = recombinant rat PIM-3 (Rattus norvegicus, UniProt O70444); assay: PIM-3 Assay (as Example A); conditions: averaged IC50; 30 μM ATP, 3.75 μM PIM2tide, 0.5 nM PIM-3
Method in brief: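 Recombinant rat PIM-3 (0.5 nM) with 3.75 μM PIM2tide and 30 μM [γ-33P]ATP in MOPS pH 7.4 buffer, 60 min at 22 °C; labelled peptide captured on phosphocellulose filters and counted by scintillation. 10-point curve (top dose 10 μM, 2% DMSO); IC50 from 4-parameter fit of percent of control.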

[1] = target: T1, GST-tagged recombinant full-length human Pim-2 (Homo sapiens, UniProt Q9P1W9); assay: PIM-2 Assay (as Example A); conditions: averaged IC50; 4 μM ATP, 1.0 μM PIM2tide, 1.5 nM Pim-2
T1 construct: GST-tagged recombinant full-length human Pim-2; GST
T1 sequence (Q9P1W9 whole entry): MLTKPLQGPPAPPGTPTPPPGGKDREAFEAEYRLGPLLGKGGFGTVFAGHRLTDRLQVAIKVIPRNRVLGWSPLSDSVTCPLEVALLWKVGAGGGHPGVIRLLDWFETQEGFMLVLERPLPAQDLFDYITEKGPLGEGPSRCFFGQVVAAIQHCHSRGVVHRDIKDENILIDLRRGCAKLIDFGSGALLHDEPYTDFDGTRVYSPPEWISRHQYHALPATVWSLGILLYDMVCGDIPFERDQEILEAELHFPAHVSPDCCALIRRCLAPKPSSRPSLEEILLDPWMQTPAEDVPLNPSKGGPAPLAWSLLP
Method in brief: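 Radiometric filter-binding assay: GST-tagged full-length human Pim-2 (1.5 nM) phosphorylates 1.0 μM PIM2tide with 4 μM [γ-33P]ATP for 60 min at 22 °C in pH 7.4 MOPS buffer, 2% DMSO. 10-point 3-fold dilutions from 10 μM top dose; IC50 from 4-parameter fit of percent of control.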

PIM-1 = PIM-1 (Homo sapiens, UniProt P11309); assay: Enzyme PIM-1 Assay ([33P]ATP incorporation into PIM2tide, filter plate); conditions: averaged IC50; 35 μM ATP, 7.5 μM PIM2tide, 0.25 nM PIM-1, 60 min at 22° C.
Chain of PIM-1 (P11309 whole entry, species assumed): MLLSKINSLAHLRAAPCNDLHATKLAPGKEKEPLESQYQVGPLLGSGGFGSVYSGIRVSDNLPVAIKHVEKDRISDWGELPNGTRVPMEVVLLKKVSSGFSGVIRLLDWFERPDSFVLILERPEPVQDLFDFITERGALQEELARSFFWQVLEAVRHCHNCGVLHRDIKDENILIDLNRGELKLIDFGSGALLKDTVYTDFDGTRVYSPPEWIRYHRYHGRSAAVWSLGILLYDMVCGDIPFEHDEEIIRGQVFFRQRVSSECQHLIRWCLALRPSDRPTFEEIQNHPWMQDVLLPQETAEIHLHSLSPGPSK
Method in brief: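 Radiometric assay: 0.25 nM PIM-1 phosphorylates 7.5 μM PIM2tide with 35 μM [γ-33P]ATP in 20 mM MOPS pH 7.4, 10 mM MgCl2, 1 mM DTT, 0.005% Tween-20, 60 min at 22 °C. Product captured on P81 filters, scintillation counted; 10-point 3-fold curve from 10 μM top, 2% DMSO, IC50 by 4-parameter logistic fit of POC.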

| IC50 (recombinant rat PIM-3) [nM] | IC50 [1] [nM] | IC50 (PIM-1) [nM] | SMILES |
| --- | --- | --- | --- |
| 0.8 | 40 | 0.15 | CC(C)Oc1cccc2ccc(-c3nnc4ccc([C@@H](N5CC[C@H](NCCO)C5)C(F)(F)F)cn34)nc12 [Example 101, 2-((S)-1-((R)-2,2,2-trifluoro-1-(3-(8-isopropoxyquinolin-2-yl)-[1,2,4]triazolo[4,3-a]pyridin-6-yl)ethyl)pyrrolidin-3-ylamino)ethanol dihydrochloride] |
| 3.1 | > 100 | 0.1 | CC(C)Oc1cccc2ccc(-c3nnc4ccc([C@H](N5CC[C@@H](O)C5)C(F)(F)F)cn34)nc12 [Example 103, (R)-1-((S)-2,2,2-trifluoro-1-(3-(8-isopropoxyquinolin-2-yl)-[1,2,4]triazolo[4,3-a]pyridin-6-yl)ethyl)pyrrolidin-3-ol] |
| 12 | > 100 | 0.17 | CC(C)(C)c1cccc2ccc(-c3nnc4ccc([C@H](N5CC[C@@H](O)C5)C(F)(F)F)cn34)nc12 [Example 104] |
| 3.4 | > 100 | 1.62 | CC(C)C(=O)Nc1ccc2ccc(-c3nnc4ccc([C@@H](N5CC[C@H](O)C5)C(F)(F)F)cn34)nc2c1 [Example 106, N-(2-(6-((R)-2,2,2-trifluoro-1-((S)-3-hydroxypyrrolidin-1-yl)ethyl)-[1,2,4]triazolo[4,3-a]pyridin-3-yl)quinolin-7-yl)isobutyramide] |
| 0.9 | > 100 | 0.48 | CC(C)(C)C(=O)Nc1ccc2ccc(-c3nnc4ccc([C@@H](N5CC[C@H](O)C5)C(F)(F)F)cn34)nc2c1 [Example 107, N-(2-(6-((R)-2,2,2-trifluoro-1-((S)-3-hydroxypyrrolidin-1-yl)ethyl)-[1,2,4]triazolo[4,3-a]pyridin-3-yl)quinolin-7-yl)pivalamide] |
| 5.5 | > 100 | 0.28 | CC(C)Oc1c(F)ccc2ccc(-c3nnc4ccc([C@@H](N5CC[C@H](N)C5)C(F)(F)F)cn34)nc12 [Example 109, (S)-1-((R)-2,2,2-trifluoro-1-(3-(7-fluoro-8-isopropoxyquinolin-2-yl)-[1,2,4]triazolo[4,3-a]pyridin-6-yl)ethyl)pyrrolidin-3-amine hydrochloride] |
| 1 | 52 | 0.07 | COCCc1cccc2ccc(-c3nnc4ccc([C@@H](N5CC[C@H](N)C5)C(F)(F)F)cn34)nc12 [Example 111, (S)-1-((R)-2,2,2-trifluoro-1-(3-(8-(2-methoxyethyl)quinolin-2-yl)-[1,2,4]triazolo[4,3-a]pyridin-6-yl)ethyl)pyrrolidin-3-amine dihydrochloride] |
| 2.3 | > 100 | 0.05 | COc1cc2nc(-c3nnc4ccc([C@@H](N5CC[C@H](N)C5)C(F)(F)F)cn34)ccc2cc1F [Example 113, (S)-1-((R)-2,2,2-trifluoro-1-(3-(6-fluoro-7-methoxyquinolin-2-yl)-[1,2,4]triazolo[4,3-a]pyridin-6-yl)ethyl)pyrrolidin-3-amine hydrochloride] |
| 1.8 | 76 | 0.24 | Cc1c(OC(C)C)ccc2ccc(-c3nnc4ccc([C@@H](N5CC[C@H](N)C5)C(F)(F)F)cn34)nc12 [Example 116, (S)-1-((R)-2,2,2-trifluoro-1-(3-(7-isopropoxy-8-methylquinolin-2-yl)-[1,2,4]triazolo[4,3-a]pyridin-6-yl)ethyl)pyrrolidin-3-amine hydrochloride] |
| 0.8 | 72 | 0.11 | COCC(C)Oc1cccc2ccc(-c3nnc4ccc([C@@H](N5CC[C@H](N)C5)C(F)(F)F)cn34)nc12 (stereo partly drawn) [Example 118, (3S)-1-((1R)-2,2,2-trifluoro-1-(3-(8-(1-methoxypropan-2-yloxy)quinolin-2-yl)-[1,2,4]triazolo[4,3-a]pyridin-6-yl)ethyl)pyrrolidin-3-amine hydrochloride] |
| 0.9 | 23 | 0.21 | CC(C)Oc1cc2nc(-c3nnc4ccc([C@@H](N5CC[C@H](N)C5)C(F)(F)F)cn34)ccc2cc1F [Example 119, (S)-1-((R)-2,2,2-trifluoro-1-(3-(6-fluoro-7-isopropoxyquinolin-2-yl)-[1,2,4]triazolo[4,3-a]pyridin-6-yl)ethyl)pyrrolidin-3-amine hydrochloride] |

Continued, compound first:

| SMILES | IC50 (recombinant rat PIM-3) [nM] | IC50 [1] [nM] | IC50 (PIM-1) [nM] |
| --- | --- | --- | --- |
| COCCOc1cc(F)cc2ccc(-c3nnc4ccc([C@@H](N5CC[C@H](N)C5)C(F)(F)F)cn34)nc12 [Example 98, (S)-1-((R)-2,2,2-trifluoro-1-(3-(6-fluoro-8-(2-methoxyethoxy)quinolin-2-yl)-[1,2,4]triazolo[4,3-a]pyridin-6-yl)ethyl)pyrrolidin-3-amine hydrochloride] | 1.8 | > 100 | 0.38 |
| CC(C)(C#N)c1cccc2ccc(-c3nnc4ccc([C@@H](N5CC[C@H](N)C5)C(F)(F)F)cn34)nc12 [Example 99, 2-(2-(6-((R)-1-((S)-3-aminopyrrolidin-1-yl)-2,2,2-trifluoroethyl)-[1,2,4]triazolo[4,3-a]pyridin-3-yl)quinolin-8-yl)-2-methylpropanenitrile dihydrochloride] | 0.6 | 55 | 0.11 |
| CC(C)(C)c1cccc2ccc(-c3nnc4ccc([C@@H](N5CC[C@H](NCCO)C5)C(F)(F)F)cn34)nc12 [Example 100, 2-((S)-1-((R)-1-(3-(8-tert-butylquinolin-2-yl)-[1,2,4]triazolo[4,3-a]pyridin-6-yl)-2,2,2-trifluoroethyl)pyrrolidin-3-ylamino)ethanol dihydrochloride] | 1.1 | 6.5 | 0.1 |
| CC(C)Oc1cc(F)cc2ccc(-c3nnc4ccc([C@@H](N5CC[C@H](NCCO)C5)C(F)(F)F)cn34)nc12 [Example 102, 2-((S)-1-((R)-2,2,2-trifluoro-1-(3-(6-fluoro-8-isopropoxyquinolin-2-yl)-[1,2,4]triazolo[4,3-a]pyridin-6-yl)ethyl)pyrrolidin-3-ylamino)ethanol dihydrochloride] | 0.7 | 30 | 0.19 |
| COCC(C)(C)c1cccc2ccc(-c3nnc4ccc([C@@H](N5CC[C@H](N)C5)C(F)(F)F)cn34)nc12 [Example 105, (S)-1-((R)-2,2,2-trifluoro-1-(3-(8-(1-methoxy-2-methylpropan-2-yl)quinolin-2-yl)-[1,2,4]triazolo[4,3-a]pyridin-6-yl)ethyl)pyrrolidin-3-amine dihydrochloride] | 0.7 | 13 | 0.04 |
| COCCOc1c(F)ccc2ccc(-c3nnc4ccc([C@@H](N5CC[C@H](N)C5)C(F)(F)F)cn34)nc12 [Example 108, (S)-1-((R)-2,2,2-trifluoro-1-(3-(7-fluoro-8-(2-methoxyethoxy)quinolin-2-yl)-[1,2,4]triazolo[4,3-a]pyridin-6-yl)ethyl)pyrrolidin-3-amine hydrochloride] | 4.7 | > 100 | 0.49 |
| COCC(C)(COC)c1cccc2ccc(-c3nnc4ccc([C@@H](N5CC[C@H](N)C5)C(F)(F)F)cn34)nc12 [Example 110, (S)-1-((R)-1-(3-(8-(1,3-dimethoxy-2-methylpropan-2-yl)quinolin-2-yl)-[1,2,4]triazolo[4,3-a]pyridin-6-yl)-2,2,2-trifluoroethyl)pyrrolidin-3-amine dihydrochloride] | 1.8 | 95 | 0.19 |
| COCC1(c2cccc3ccc(-c4nnc5ccc([C@@H](N6CC[C@H](N)C6)C(F)(F)F)cn45)nc23)CC1 [Example 112, (S)-1-((R)-2,2,2-trifluoro-1-(3-(8-(1-(methoxymethyl)cyclopropyl)quinolin-2-yl)-[1,2,4]triazolo[4,3-a]pyridin-6-yl)ethyl)pyrrolidin-3-amine dihydrochloride] | 1.4 | 21 | 0.12 |
| N[C@H]1CCN([C@H](c2ccc3nnc(-c4ccc5cccc(C6(CO)CC6)c5n4)n3c2)C(F)(F)F)C1 [Example 114, (1-(2-(6-((R)-1-((S)-3-aminopyrrolidin-1-yl)-2,2,2-trifluoroethyl)-[1,2,4]triazolo[4,3-a]pyridin-3-yl)quinolin-8-yl)cyclopropyl)methanol dihydrochloride] | 0.3 | 5.6 | 0.06 |
| COCCOc1ccc2ccc(-c3nnc4ccc([C@@H](N5CC[C@H](N)C5)C(F)(F)F)cn34)nc2c1C [Example 117, (S)-1-((R)-2,2,2-trifluoro-1-(3-(7-(2-methoxyethoxy)-8-methylquinolin-2-yl)-[1,2,4]triazolo[4,3-a]pyridin-6-yl)ethyl)pyrrolidin-3-amine hydrochloride] | 0.4 | 210 | 0.21 |
| COCCOc1cc2nc(-c3nnc4ccc([C@@H](N5CC[C@H](N)C5)C(F)(F)F)cn34)ccc2cc1F [Example 120, (S)-1-((R)-2,2,2-trifluoro-1-(3-(6-fluoro-7-(2-methoxyethoxy)quinolin-2-yl)-[1,2,4]triazolo[4,3-a]pyridin-6-yl)ethyl)pyrrolidin-3-amine hydrochloride] | 3 | > 100 | 0.47 |
